Measured values from patent publication EP3046573B1, “AMYLIN ANALOGUES” (Zealand Pharma A/S, priority 2013, dated 2015).
Numbered stars: 1 amine (or outer) side, 2 acyl side, 3 side chain; on linkers, the order of the positions; unused ones are H or OH. Bridge positions count the residues as written; N and C are the ends. Square brackets hold non-standard residues; d marks the D form. Peptide text beside a SMILES is read from it. * marks the point of attachment. C20 diacid = O=C(O)CCCCCCCCCCCCCCCCCCC(=O)*; γGlu = O=C(O)[C@H](CCC(=O)[*:2])N[*:1]; NMeI = CC[C@H](C)[C@H](NC)C(=O)O; Sar = CNCC(=O)O

Key:
[1] = Solubility assessment (turbidity absorbance at 325 nm); format: physicochemical; settings: stock 2 mg/ml diluted 1:1, ambient temperature (typically 25°C), n=1; for Solubility, Acetate buffer pH 4: 100 mM acetate buffer pH 4.0; for Solubility, Acetate buffer pH 5: 100 mM acetate buffer pH 5.0; for Solubility, Histidine buffer pH 6: 100 mM histidine buffer pH 6.0; for Solubility, Histidine buffer pH 7: 100 mM histidine buffer pH 7.0; for Solubility, Phosphate buffer pH 6: 100 mM phosphate buffer pH 6.0; for Solubility, Phosphate buffer pH 7: 100 mM phosphate buffer pH 7.0; for Solubility, Phosphate buffer pH 7.5: 100 mM phosphate buffer pH7.5
Summary of the method: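 Read-out: turbidity as absorbance at 325 nm (280 nm also read), single samples, ambient temperature of typically 25°C. Samples were a 1:1 mix of 2 mg/ml stock (water, pH 2.5) with 100 mM acetate, histidine or phosphate buffers spanning pH 4.0–7.5. Cut-off: A325 ≤ 0.02 indicates ≥ 1 mg/ml.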

Sprague Dawley (SD) rats = assay: Acute food intake and body weight in normal Sprague Dawley rats; format: in vivo; settings: vehicle-corrected, dose 30 nmol/kg sc, once; for Body weight loss (%) after 96 hours: mean ± SEM, n = 8
Summary of the method: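 Normal male-unspecified SD rats, n = 8 per group, given a single s.c. peptide dose of 30 nmol/kg just before dark phase, with vehicle and positive control groups. Food intake recorded at 0, 4, 7, 10, 24, 48, 72 and 96 h; body weight daily; means ± SEM.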

[2] = target: T1, human calcitonin receptor (hCTR2) (Homo sapiens, UniProt P30988); assay: hCTR2 assay: induction of cAMP (AlphaScreen cAMP Assay kit) in COS7 cells expressing hCTR2; format: cell-based; settings: cAMP induction in COS7 cells expressing hCTR2; average of a minimum of 3 determinations; read-out: hCTR2 EC50
T1 construct: expressed in transfected cells
T1 sequence (P30988 25-474): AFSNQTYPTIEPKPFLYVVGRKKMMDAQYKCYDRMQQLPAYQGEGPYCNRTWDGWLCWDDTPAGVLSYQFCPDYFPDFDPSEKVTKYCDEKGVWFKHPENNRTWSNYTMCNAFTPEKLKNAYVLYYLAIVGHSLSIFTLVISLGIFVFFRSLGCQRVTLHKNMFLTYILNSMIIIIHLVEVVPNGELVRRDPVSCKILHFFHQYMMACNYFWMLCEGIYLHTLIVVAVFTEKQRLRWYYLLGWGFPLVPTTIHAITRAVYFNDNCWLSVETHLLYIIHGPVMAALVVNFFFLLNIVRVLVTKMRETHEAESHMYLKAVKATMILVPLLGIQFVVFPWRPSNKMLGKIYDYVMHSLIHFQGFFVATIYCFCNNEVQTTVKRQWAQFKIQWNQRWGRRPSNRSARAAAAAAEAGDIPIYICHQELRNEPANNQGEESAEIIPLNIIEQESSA
Summary of the method: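 Peptide-induced cAMP in hCTR2-expressing COS7 cells, 15 min at 37° C with phosphodiesterase inhibitor IBMX (100 µM), detected by AlphaScreen; potency from 4PL curves.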

Structure (SMILES) | Solubility, Acetate buffer pH 4 [1] | Solubility, Acetate buffer pH 5 [1] | Solubility, Histidine buffer pH 6 [1] | Solubility, Histidine buffer pH 7 [1] | Solubility, Phosphate buffer pH 6 [1] | Solubility, Phosphate buffer pH 7 [1] | Solubility, Phosphate buffer pH 7.5 [1] | Food intake inhibition (%) after 48 hours (Sprague Dawley (SD) rats) [%] | Body weight loss (%) after 96 hours (Sprague Dawley (SD) rats) [%] | EC50 [2] [nM]
CC[C@H](C)[C@@H](C(=O)N[C@@H](CC(C)C)C(=O)N[C@@H](CO)C(=O)N[C@@H](CO)C(=O)N[C@H](C(=O)N[C@@H](CCC(=O)O)C(=O)N[C@H](C(=O)NCC(=O)N[C@@H](CO)C(=O)N[C@@H](CCC(=O)O)C(=O)N[C@H](C(=O)N1CCC[C@H]1C(N)=O)[C@@H](C)O)C(C)C)[C@@H](C)O)N(C)C(=O)[C@H](C)NC(=O)CN(C)C(=O)[C@H](Cc1ccccc1)NC(=O)[C@H](CO)NC(=O)[C@H](CO)NC(=O)[C@H](CCCNC(=N)N)NC(=O)[C@H](Cc1c[nH]cn1)NC(=O)[C@H](CC(C)C)NC(=O)[C@H](Cc1ccccc1)NC(=O)[C@H](CCC(=O)O)NC(=O)[C@H](C)NC(=O)[C@H](CC(C)C)NC(=O)[C@H](CCCNC(=N)N)NC(=O)[C@H](CCC(=O)O)NC(=O)[C@@H](NC(=O)[C@H](C)NC(=O)[C@@H]1CSSC[C@H](NC(=O)[C@H](CCCNC(=N)N)NC(=O)CC[C@H](NC(=O)CCCCCCCCCCCCCCCCCCC(=O)O)C(=O)O)C(=O)NCC(=O)N[C@@H]([C@@H](C)O)C(=O)N[C@@H](C)C(=O)N[C@@H]([C@@H](C)O)C(=O)N1)[C@@H](C)O [Compound 162, [19CD]-isoGlu-RC()GTATC()ATERLAEFLHRSSF-Gly(Me)-A-Ile(Me)-LSSTEVGSETP-NH2] ({C20 diacid-γGlu}-RCGTATCATERLAEFLHRSSF[Sar]A[NMeI]LSSTEVGSETP-NH2; disulfide 2-7) | SS (SS indicates solubility ≥ 1mg/ml) | SS (SS indicates solubility ≥ 1mg/ml) | SS (SS indicates solubility ≥ 1mg/ml) | SS (SS indicates solubility ≥ 1mg/ml) | SS (SS indicates solubility ≥ 1mg/ml) | SS (SS indicates solubility ≥ 1mg/ml) | SS (SS indicates solubility ≥ 1mg/ml) | 99 | 13 ± 2.2 | 0.049
CC[C@H](C)[C@@H](C(=O)N[C@@H](CC(C)C)C(=O)N[C@@H](CO)C(=O)N[C@@H](CO)C(=O)N[C@H](C(=O)N[C@@H](CC(=O)O)C(=O)N[C@H](C(=O)NCC(=O)N[C@@H](CO)C(=O)N[C@@H](CC(=O)O)C(=O)N[C@H](C(=O)N1CCC[C@H]1C(N)=O)[C@@H](C)O)C(C)C)[C@@H](C)O)N(C)C(=O)[C@H](C)NC(=O)CN(C)C(=O)[C@H](Cc1ccccc1)NC(=O)[C@H](CO)NC(=O)[C@H](CO)NC(=O)[C@H](CCCNC(=N)N)NC(=O)[C@H](Cc1c[nH]cn1)NC(=O)[C@H](CC(C)C)NC(=O)[C@H](Cc1ccccc1)NC(=O)[C@H](CCC(=O)O)NC(=O)[C@H](C)NC(=O)[C@H](CC(C)C)NC(=O)[C@H](CCCNC(=N)N)NC(=O)[C@H](CC(=O)O)NC(=O)[C@@H](NC(=O)[C@H](C)NC(=O)[C@@H]1CSSC[C@H](NC(=O)[C@H](CCCNC(=N)N)NC(=O)CC[C@H](NC(=O)CCCCCCCCCCCCCCCCCCC(=O)O)C(=O)O)C(=O)N2CCC[C@H]2C(=O)N[C@@H]([C@@H](C)O)C(=O)N[C@@H](C)C(=O)N[C@@H]([C@@H](C)O)C(=O)N1)[C@@H](C)O [Compound 172, [19CD]-isoGlu-RC()PTATC()ATDRLAEFLHRSSF-Gly(Me)-A-Ile(Me)-LSSTDVGSDTP-NH2] ({C20 diacid-γGlu}-RCPTATCATDRLAEFLHRSSF[Sar]A[NMeI]LSSTDVGSDTP-NH2; disulfide 2-7) | SS (SS indicates solubility ≥ 1mg/ml) | SS (SS indicates solubility ≥ 1mg/ml) | SS (SS indicates solubility ≥ 1mg/ml) | SS (SS indicates solubility ≥ 1mg/ml) | SS (SS indicates solubility ≥ 1mg/ml) | SS (SS indicates solubility ≥ 1mg/ml) | SS (SS indicates solubility ≥ 1mg/ml) | 99 | 13 ± 1.1 | 0.045
